Source: ChEMBL document CHEMBL5321213, “Nicolaioidesin C: An Antiausterity Agent Shows Promising Antitumor Activity in a Pancreatic Cancer Xenograft Mouse Model” (J Nat Prod, 2023)
Activity calls are given as the source filed them. The calls are words filed in the database; no cut-off is given here.

Assays:
MIA PaCa-2 [1] = test: Antitumor activity against human MIA PaCa-2 cells xenografted in athymic BALB/c-nu mouse assessed as fold change in nicotinamide level in tumor at 2 mg/kg/day, ip administered five times per week for 4 weeks by LC-MS analysis; type: functional
MIA PaCa-2 [2] = test: Antitumor activity against human MIA PaCa-2 cells xenografted in athymic BALB/c-nu mouse assessed as fold change in cytidine level in tumor at 2 mg/kg/day, ip administered five times per week for 4 weeks by LC-MS analysis; type: functional
MIA PaCa-2 [3] = test: Antitumor activity against human MIA PaCa-2 cells xenografted in athymic BALB/c-nu mouse assessed as fold change in tyrosine level in tumor at 2 mg/kg/day, ip administered five times per week for 4 weeks by LC-MS analysis; type: functional
MIA PaCa-2 [4] = test: Antitumor activity against human MIA PaCa-2 cells xenografted in athymic BALB/c-nu mouse assessed as fold change in leucine level in tumor at 2 mg/kg/day, ip administered five times per week for 4 weeks by LC-MS analysis; type: functional
MIA PaCa-2 [5] = test: Antitumor activity against human MIA PaCa-2 cells xenografted in athymic BALB/c-nu mouse assessed as fold change in 3-sulfolacticacid level in tumor at 10 mg/kg/day, ip administered five times per week for 4 weeks by LC-MS analysis; type: functional
PANC-1 [6] = test: Antimetastatic activity in human PANC-1 cells in DMEM media assessed as inhibition of colony formation at 20 uM incubated for 24 hrs followed by replacement with fresh medium and measured after 10 days by crystal violet staining-based assay relative to control; type: functional
PANC-1 [7] = test: Antimetastatic activity in human PANC-1 cells in nutrient-rich medium assessed as open wound area at 20 uM measured every 15 mins for 48 hrs by live cell imaging analysis relative to control; type: functional
MIA PaCa-2 [8] = test: Antitumor activity against human MIA PaCa-2 cells xenografted in athymic BALB/c-nu mouse assessed as fold change in methionine level in tumor at 10 mg/kg/day, ip administered five times per week for 4 weeks by LC-MS analysis; type: functional
MIA PaCa-2 [9] = test: Antimetastatic activity in human MIA PaCa-2 cells in nutrient-rich medium assessed as open wound area at 20 uM measured every 15 mins for 24 hrs by live cell imaging analysis (reference value: 62%); type: functional
MIA PaCa-2 [10] = test: Antitumor activity against human MIA PaCa-2 cells xenografted in athymic BALB/c-nu mouse assessed as fold change in desthiobiotin level in tumor at 2 mg/kg/day, ip administered five times per week for 4 weeks by LC-MS analysis; type: functional
MIA PaCa-2 [11] = test: Antitumor activity against human MIA PaCa-2 cells xenografted in athymic BALB/c-nu mouse assessed as fold change in biotin level in tumor at 2 mg/kg/day, ip administered five times per week for 4 weeks by LC-MS analysis; type: functional
MIA PaCa-2 [12] = test: Antitumor activity against human MIA PaCa-2 cells xenografted in athymic BALB/c-nu mouse assessed as fold change in desthiobiotin level in tumor at 10 mg/kg/day, ip administered five times per week for 4 weeks by LC-MS analysis; type: functional
MIA PaCa-2 [13] = test: Antitumor activity against human MIA PaCa-2 cells xenografted in athymic BALB/c-nu mouse assessed as fold change in 5'-methylthioadenosine level in tumor at 10 mg/kg/day, ip administered five times per week for 4 weeks by LC-MS analysis; type: functional
MIA PaCa-2 [14] = test: Antitumor activity against human MIA PaCa-2 cells xenografted in athymic BALB/c-nu mouse assessed as fold change in 1-aminocyclopropanecarboxylicacid level in tumor at 2 mg/kg/day, ip administered five times per week for 4 weeks by LC-MS analysis; type: functional
MIA PaCa-2 [15] = test: Antitumor activity against human MIA PaCa-2 cells xenografted in athymic BALB/c-nu mouse assessed as fold change in D-glucuronic acid level in tumor at 2 mg/kg/day, ip administered five times per week for 4 weeks by LC-MS analysis; type: functional
PANC-1 [16] = test: Inhibition of autophagy in human PANC-1 cells in nutrient-deprived medium assessed as downregulation of LC3-II protein expression measured after 6 hrs by Western blot analysis; type: functional, cell-based; details: dose 5-20 µM
MIA PaCa-2 [17] = test: Antitumor activity against human MIA PaCa-2 cells xenografted in athymic BALB/c-nu mouse assessed as fold change in methionine level in tumor at 2 mg/kg/day, ip administered five times per week for 4 weeks by LC-MS analysis; type: functional
MIA PaCa-2 [18] = test: Antitumor activity against human MIA PaCa-2 cells xenografted in athymic BALB/c-nu mouse assessed as fold change in cytidine diphosphate ethanolamine level in tumor at 2 mg/kg/day, ip administered five times per week for 4 weeks by LC-MS analysis; type: functional
MIA PaCa-2 [19] = test: Antitumor activity against human MIA PaCa-2 cells xenografted in athymic BALB/c-nu mouse assessed as fold change in proline level in tumor at 2 mg/kg/day, ip administered five times per week for 4 weeks by LC-MS analysis; type: functional
MIA PaCa-2 [20] = test: Antitumor activity against human MIA PaCa-2 cells xenografted in athymic BALB/c-nu mouse assessed as fold change in glutamic acid level in tumor at 10 mg/kg/day, ip administered five times per week for 4 weeks by LC-MS analysis; type: functional
MIA PaCa-2 [21] = test: Inhibition of autophagy in human MIA PaCa-2 cells in nutrient-deprived medium assessed as downregulation of LC3-I protein expression measured after 6 hrs by Western blot analysis; type: functional, cell-based; details: dose 5-20 µM
MIA PaCa-2 [22] = test: Antitumor activity against human MIA PaCa-2 cells xenografted in athymic BALB/c-nu mouse assessed as fold change in uracil level in tumor at 10 mg/kg/day, ip administered five times per week for 4 weeks by LC-MS analysis; type: functional
PANC-1 [23] = test: Antimetastatic activity in human PANC-1 cells in DMEM media assessed as inhibition of colony formation at 10 uM incubated for 24 hrs followed by replacement with fresh medium and measured after 10 days by crystal violet staining-based assay relative to control; type: functional
MIA PaCa-2 [24] = test: Antitumor activity against human MIA PaCa-2 cells xenografted in athymic BALB/c-nu mouse assessed as fold change in asparagine level in tumor at 2 mg/kg/day, ip administered five times per week for 4 weeks by LC-MS analysis; type: functional
MIA PaCa-2 [25] = test: Antitumor activity against human MIA PaCa-2 cells xenografted in athymic BALB/c-nu mouse assessed as fold change in D-glucuronicacid level in tumor at 10 mg/kg/day, ip administered five times per week for 4 weeks by LC-MS analysis; type: functional
MIA PaCa-2 [26] = test: Antitumor activity against human MIA PaCa-2 cells xenografted in athymic BALB/c-nu mouse assessed as fold change in 5'-methylthioadenosine level in tumor at 2 mg/kg/day, ip administered five times per week for 4 weeks by LC-MS analysis; type: functional
MIA PaCa-2 [27] = test: Preferential cytotoxicity against human MIA PaCa-2 cells in nutrient-deprived medium assessed as alteration in cell morphology by measuring cell blebbing at 5 uM measured after 24 hrs by acridine orange and ethidium bromide dual fluorescent staining based imaging analysis; type: functional
MIA PaCa-2 [28] = test: Antimetastatic activity in human MIA PaCa-2 cells in DMEM media assessed as inhibition of colony formation at 10 uM incubated for 24 hrs followed by replacement with fresh medium and measured after 10 days by crystal violet staining-based assay relative to control; type: functional
MIA PaCa-2 [29] = test: Antitumor activity against human MIA PaCa-2 cells xenografted in athymic BALB/c-nu mouse assessed as reduction in p-Akt level in tumor at 2 to 10 mg/kg/day, ip administered five times per week for 4 weeks by immunohistochemistry analysis; type: functional, organism-based; details: dose 2-10 mg/kg/day

With `COc1cc(O)c(C(=O)[C@@H]2CC=C(CCC=C(C)C)C[C@H]2c2ccccc2)c(O)c1` as the compound, how does the “fold change (FC)” value (MIA PaCa-2 [1]) read?
Its value is 0.52.

What about the “fold change (FC)” value (MIA PaCa-2 [2]) of the same compound?
The value was 0.62.

What about the “fold change (FC)” value (MIA PaCa-2 [3]) of the same compound?
The value was 0.41.

And the “fold change (FC)” value (MIA PaCa-2 [4])?
The value was 0.43.

And the “fold change (FC)” value (MIA PaCa-2 [5])?
Its value is 0.44.

What about the inhibition at 20 µM (PANC-1 [6]) of the same compound?
The inhibition at 20 µM was 82%.

What about the Activity (PANC-1 [7]) of the same compound?
The Activity was 24%.

And the “fold change (FC)” value (MIA PaCa-2 [8])?
The value was 0.38.

What about the Activity (MIA PaCa-2 [9]) of the same compound?
Its Activity is 87%.

And the “fold change (FC)” value (MIA PaCa-2 [10])?
The value was 0.63.

And the “fold change (FC)” value (MIA PaCa-2 [11])?
Its value is 0.86.

What about the “fold change (FC)” value (MIA PaCa-2 [12]) of the same compound?
The value was 0.4.

And the “fold change (FC)” value (MIA PaCa-2 [13])?
The value was 0.25.

What about the “fold change (FC)” value (MIA PaCa-2 [14]) of the same compound?
The value was 0.8.

What about the “fold change (FC)” value (MIA PaCa-2 [15]) of the same compound?
The value was 1.03.

What about the inhibition (PANC-1 [16]) of the same compound?
Its inhibition is “Dose-Dependent Effect”.

What about the “fold change (FC)” value (MIA PaCa-2 [17]) of the same compound?
Its value is 0.44.

And the “fold change (FC)” value (MIA PaCa-2 [18])?
Its value is 0.4.

And the “fold change (FC)” value (MIA PaCa-2 [19])?
Its value is 0.62.

And the “fold change (FC)” value (MIA PaCa-2 [20])?
The value was 0.25.

What about the inhibition (MIA PaCa-2 [21]) of the same compound?
Its inhibition is “Dose-Dependent Effect”.

And the “fold change (FC)” value (MIA PaCa-2 [22])?
The value was 0.09.

What about the inhibition at 10 µM (PANC-1 [23]) of the same compound?
Its inhibition at 10 µM is 67%.

What about the “fold change (FC)” value (MIA PaCa-2 [24]) of the same compound?
Its value is 0.33.

What about the “fold change (FC)” value (MIA PaCa-2 [25]) of the same compound?
The value was 0.68.

And the “fold change (FC)” value (MIA PaCa-2 [26])?
Its value is 0.33.

What about the Activity (MIA PaCa-2 [27]) of the same compound?
The Activity was “Active”.

What about the inhibition at 10 µM (MIA PaCa-2 [28]) of the same compound?
The inhibition at 10 µM was 88%.

And the Activity (MIA PaCa-2 [29])?
Its Activity is “Active”.
